{"source": "patent US5668134A", "about": "“Method for preventing or reducing photosensitivity and/or phototoxicity reactions to medications” (priority 1994, dated 1997)", "key": {"[1]": {"test": "Example 1: general pharmacokinetics in volunteers", "assay_type": "in vivo, human", "experimental": "In 6 fasting healthy male volunteers, approximately 95% to 98% of a single oral dose of lomefloxacin HCl was absorbed. […] Mean plasma concentration increased proportionally between 100 and 400 mg as shown below.\nIn 6 healthy male volunteers administered 400 mg of lomefloxacin HCl on an empty stomach q.d. for 7 days, the following mean pharmacokinetic parameter values were obtained: [formula]\nThe elimination half-life in 8 subjects with normal renal function was approximately 8 hours. At 24 hours post dose, subjects with normal renal function receiving single doses of 200 or 400 mg lomefloxacin HCl had mean plasma lomefloxacin HCl concentrations of 0.10 and 0.24 μg/ml, respectively. Steady-state concentrations were achieved within 48 hours of initiating therapy with once-a-day dosing.\nApproximately 65% of an orally administered dose of lomefloxacin HCl was excreted in the urine as unchanged drug in patients with normal renal function. Following a 400 mg dose of lomefloxacin HCl administered q.d. for 7 days, the mean urine concentration was in excess of 300 μg/ml 4 hours post dose. The mean urine concentration exceeded 35 μg/ml for at least 24 hours after dosing.\nThe urinary excretion of lomefloxacin HCl was virtually complete within 72 hours after cessation of dosing, with approximately 65% of the dose being recovered as parent drug and 9% as its glucuronide metabolite."}, "[2]": {"test": "Solubility of lomefloxacin HCl in urine", "assay_type": "physicochemical", "details": "human", "experimental": "Following a single 400 mg dose of lomefloxacin HCl, the solubility of lomefloxacin HCl in urine usually exceeded its peak urinary concentration 2 to 6 fold."}, "[3]": {"test": "Food effect on pharmacokinetics", "assay_type": "in vivo, human"}, "[4]": {"system": "skin of healthy volunteers", "details": "in vivo", "procedure": "The number of skin patches with edema, or local swelling of the skin surface, were also counted. MEDs were measured separately for UVA and UVB radiation, and for UVA radiation alone. The baseline MED was defined in the manner described hereinabove. The 24 hour evaluation was allowed to be performed in the morning of Study Day 1. Severity of reactions causing edema and/or blisters were graded under the following grading system:\nSeverity was assessed by comparing the numbers of subjects with responses graded as 2 (edema) or 3 (blisters)."}, "[5]": {"system": "skin of healthy volunteers", "details": "in vivo", "remark": "listed apart in the source", "source_text": "The relationship between plasma concentration at time of irradiation and delayed MEDUVA was explored using regression analysis by testing the equality of the slopes of the regression of delayed MEDUVA on plasma concentration, obtaining estimates of the parameters of the regression line, and determining the correlation coefficient."}}, "note": "Where a name gives a salt, the structure may show the parent alone."}
{"smiles": "CCn1cc(C(=O)O)c(=O)c2cc(F)c(N3CCNC(C)C3)c(F)c21", "note": "(racemic) [lomefloxacin HCl, monohydrochloride salt of (±)-1-ethyl-6,8-difluoro-1,4-dihydro-7-(3-methyl-1-piperazinyl)-4-oxo-3-quinolinecarboxylic acid]", "values": [{"measurement": "glucuronide metabolite recovered in urine", "setting": "[1]; human, in vivo", "result": 9, "unit": "%"}, {"measurement": "time to steady-state concentrations", "setting": "[1]; human, in vivo", "result": "≤ 48", "unit": "h"}, {"measurement": "time to virtually complete urinary excretion", "setting": "[1]; human, in vivo", "result": "≤ 72", "unit": "h"}, {"measurement": "CL renal", "setting": "[1]; human, in vivo, po", "result": 145, "unit": "mL/min"}, {"measurement": "Fa", "setting": "[1]; human, in vivo, po", "result": "95 to 98", "unit": "%"}, {"measurement": "Tmax", "setting": "[1]; human, in vivo, po", "result": "0.8 to 1.4", "unit": "h"}, {"measurement": "half-life", "setting": "[1]; human, in vivo, po", "result": "~8", "unit": "h"}, {"measurement": "drug accumulation", "setting": "[1]; single daily dosing, normal renal function", "result": "no drug accumulation"}, {"measurement": "solubility", "setting": "[2]; pH 5.2", "result": 7800, "unit": "µg/mL"}, {"measurement": "solubility", "setting": "[2]; pH 6.5", "result": 2400, "unit": "µg/mL"}, {"measurement": "solubility", "setting": "[2]; pH 8.12", "result": 3030, "unit": "µg/mL"}, {"measurement": "decrease of Cmax with food", "setting": "[3]", "result": 18, "unit": "%"}, {"measurement": "decrease of extent of absorption (AUC) with food", "setting": "[3]", "result": 12, "unit": "%"}, {"measurement": "delay of Tmax with food", "setting": "[3]", "result": 41, "unit": "%"}, {"measurement": "Tmax", "setting": "[3]; human, in vivo, with food", "result": 2, "unit": "h"}, {"measurement": "severity of UVA+UVB radiation-induced photoreactions versus baseline", "setting": "[4]", "result": "no change"}, {"measurement": "subjects with edema or blisters on the sites of radiation, UVA", "setting": "[4]", "result": "sixty-nine"}, {"measurement": "reduction in Minimum Erythema Dose from baseline at high plasma concentration", "setting": "[5]", "result": "marked reduction in Minimum Erythema Dose from baseline"}, {"measurement": "reduction in Minimum Erythema Dose from baseline at low plasma concentration", "setting": "[5]", "result": "no reduction in Minimum Erythema Dose from baseline"}]}
